Test results published in patent publication US12162856B2, “β-catenin and B-cell lymphoma 9 (BCL9) inhibitors” (H. LEE MOFFITT CANCER CENTER AND RESEARCH INSTITUTE, INC., priority 2019, dated 2024).
Read-outs that look alike come from different tables or passages of the source.

Legend:
[1] = test system: Wnt target genes; conditions: reported in the literature; cited from earlier work
[2] = target: T1, β-catenin/BCL9 interaction (Homo sapiens, UniProt P35222); conditions: reported in the literature; cited from earlier work
T1 sequence (P35222 1-781): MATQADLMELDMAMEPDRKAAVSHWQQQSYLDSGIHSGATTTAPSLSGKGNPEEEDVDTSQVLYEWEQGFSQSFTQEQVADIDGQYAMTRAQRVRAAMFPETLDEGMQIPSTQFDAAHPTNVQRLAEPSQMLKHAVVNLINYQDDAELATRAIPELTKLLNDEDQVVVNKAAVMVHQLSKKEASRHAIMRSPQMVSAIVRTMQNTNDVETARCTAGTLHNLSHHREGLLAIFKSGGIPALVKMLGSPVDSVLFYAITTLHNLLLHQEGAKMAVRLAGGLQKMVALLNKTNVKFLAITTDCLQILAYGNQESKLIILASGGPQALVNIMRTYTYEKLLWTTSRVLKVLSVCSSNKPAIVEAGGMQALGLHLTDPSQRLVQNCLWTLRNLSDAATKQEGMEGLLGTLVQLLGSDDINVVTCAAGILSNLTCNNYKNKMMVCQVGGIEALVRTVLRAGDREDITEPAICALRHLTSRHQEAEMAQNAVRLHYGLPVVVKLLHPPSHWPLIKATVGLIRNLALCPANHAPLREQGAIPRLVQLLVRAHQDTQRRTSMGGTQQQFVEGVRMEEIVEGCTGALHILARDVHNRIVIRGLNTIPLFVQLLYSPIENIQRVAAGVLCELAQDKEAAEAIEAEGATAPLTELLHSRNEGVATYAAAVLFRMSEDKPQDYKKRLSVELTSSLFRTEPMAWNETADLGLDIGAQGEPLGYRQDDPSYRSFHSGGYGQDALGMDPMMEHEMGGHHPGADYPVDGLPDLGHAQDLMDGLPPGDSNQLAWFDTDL

[3] = target: T2, β-catenin/BCL9 PPI (Homo sapiens, UniProt P35222); experiment: AlphaScreen competitive inhibition assay of the β-catenin/BCL9 PPI; type: binding; conditions: mean ± SD, triplicate, Ki derived from IC50 (Nikolovska-Coleska equation)
T2 construct: Wild-type full-length β-catenin were cloned into a pET-28b vector; made in house; host or cells: Escherichia coli BL21 DE3 (β-catenin); BCL9 peptide chemically synthesized
T2 sequence (P35222 1-781): T1 sequence (P35222 1-781)
Method: Protein expression and purification. Wild-type full-length β-catenin were cloned into a pET-28b vector carrying a C-terminal 6×histidine (Novagen), and transformed into Escherichia coli BL21 DE3 (Novagen). Cells were cultured in LB medium with 30 μg/mL kanamycin until the OD600 was approximately 0.8, and then protein expression was induced with 400 μM of IPTG at 20° C. overnight. Cells were lysed by sonication. The proteins were purified by Ni-NTA affinity chromatography (30210, Qiagen) and dialyzed against a buffer containing 20 mM of Tris (pH 8.5), 100 mM NaCl, 10% glycerol, and 3 mM DTT. The purity of β-eaten in was greater than 95% as determined by SDS-PAGE gel analysis. Native non-denaturing gel electrophoresis was performed to confirm the homogeneity of the purified proteins. Thermal-shift assay was performed on an iCycler iQ Real Time Detection System (Bio-Rad) to monitor protein stability and detect protein aggregation. Protein unfolding was evaluated through measuring the S15 fluorescence changes of fluorescent dye Sypro Orange when interacting with wild-type or mutant β-catenin proteins. A temperature increment of […] was applied. CD spectra were measured on a J-815 spectropolarimeter (Jasco). All spectra were recorded at room temperature, and the baseline control containing all of the substances except protein. Sample were prepared at a concentration around 1-5 μM in a buffer of 10 mM potassium phosphate and 100 mM potassium fluoride at pH 7.0 to ensure that the transmission of light through the sample was not restricted. All proteins were stable and no aggregation was observed under storage or assay conditions. Proteins were aliquoted and stored at −80° C.
BCL9 peptide synthesis and purification. Human BCL9 (residues 350-375), and […] biotinylated human BCL9 (residues 350-375) were synthesized. All synthesized peptides were purified by HPLC with purity >95%. The structures were validated by LC/MS. The sequences are as follows (Ahx, 6-aminohexanoic acid).
AlphaScreen competitive inhibition assays. For the competitive inhibition assays of the β-catenin/BCL9 PPI, the negative control (equivalent to 0% inhibition) refers to 5.0 nM of biotinylated BCL9, 40 nM of His6-tagged β-catenin, and 10 μg/mL of donor and acceptor beads in a final volume of 25 μL assay buffer, but no tested inhibitor present. The positive control (equivalent to 100% inhibition) refers to 5.0 nM of biotinylated BCL9 and […] of donor and acceptor beads in a final volume of 25 μL assay buffer.
For the β-catenin/BCL9 assay, 5 nM of biotinylated BCL9 and 40 nM of His6-tagged β-catenin were incubated in assay buffer at 4° C. for 30 min. Different concentrations of the tested inhibitor were added and incubated in 20 μL assay buffer at 4° C. for another 1 h. All of the above assay plates were covered and gently mixed on an orbital shaker. The donor and acceptor beads were then added to the plates to a final concentration of 10 μg/mL in 25 μL assay buffer. The mixture was incubated for 1 h at 4° C. before detection. The IC50 value was determined by nonlinear least-square analysis of GraphPad Prism 5.0. The Ki values were derived from the IC50 values using a method reported by Nikolovska-Coleska et al (Nikolovska-Coleska, Z.; Wang, R.; Fang, X.; Pan, H.; Tomita, Y.; Li, P.; Roller, P. P.; Krajewski, K.; Saito, N. G.; Stuckey, J. A.; Wang, S. Development and optimization of a binding assay for the XIAP BIR3 domain using fluorescence polarization. Anal. Biochem. 2004, 332, 261-273.). The assays were conducted under the conditions required by Nikolovska-Coleska et al.'s equation for determining the Ki values. All of the experiments were performed in triplicate. The results were expressed as mean±standard deviation.

CC(C)c1cc2c(c(O)c1O)[C@@]1(C(=O)O)CCCC(C)(C)[C@@H]1CC2 [camosic acid, Carnosic acid]
suppression of Wnt target gene / β-catenin-dependent transcription [1]: inhibit β-catenin-dependent transcription
disruption of the β-catenin/BCL9 interaction [2]: can disrupt the β-catenin/BCL9 interaction

CC(C)(CN)C(=O)Nc1cc(F)cc(C(=O)N2CCN(C(=O)c3ccc(O[C@H]4CCNC4)c(C4CCC(C(F)(F)F)CC4)c3)CC2)c1 (stereo partly drawn) [Compound 11, (S)-3-amino-N-(3-fluoro-5-(4-(4-(pyrrolidin-3-yloxy)-3-(4-(trifluoromethyl)cyclohexyl)benzoyl)piperazine-1-carbonyl)phenyl)-2,2-dimethylpropanamide ditrifluoroacetate]
Ki ([3]; experiment 1, read-out: Ki (μM ± SD) experiment 1): 170 ± 23 µM
Ki ([3]; experiment 2, read-out: Ki (μM ± SD) experiment 2): 150 ± 18 µM
